Source: patent publication US20050153361A1, “Therapeutic and diagnostic applications of protein disulphide isomerases” (priority 2003, published 2005)
Entries after “also recorded” stand apart in the source; their conditions may differ.

Legend:
EndoPDI mRNA = experiment: RNase protection analysis of EndoPDI mRNA after siRNA transfection; type: cell-based, human; conditions: HDMEC, 10 nM siRNA
Experimental: RNase Protection Assay. Total RNA was extracted from cells in culture using TRI reagent (Sigma, Poole, Dorset, UK). RNase protection assays were performed in duplicate on 10-30 μg of total RNA as described (16). […] The protected fragment size for EndoPDI was 300 nucleotides. In each assay, a positive and negative (tRNA only) control and undigested riboprobes were analysed. Intensity of signal, quantified on a PhosphorImager (Molecular Dynamics, Chesham, Buckinghamshire, United Kingdom) was calculated as the ratio of the signal of interest to U6 mRNA to correct for variations in loading.
(§1) Transfection of microvascular endothelial cells with siRNA: EndoPDI specific (5′-[…]-3′) and PDI specific (5′-[…]-3′) siRNA oligos were synthesized using the SilencerTM siRNA Construction kit (Ambion, Huntingdon, UK) following manufacturer's instructions. HDMEC (5×10^5 cells) were plated onto 0.2% gelatin coated 10 cm petri dishes and incubated for 24 h. Cells were then transfected with 10 nM EndoPDI and/or PDI siRNA using oligofectamine reagent (Invitrogen) according to the manufacturer's instructions. The cells were then incubated for 24 h prior to hypoxia for 16 h (0.1% O2, 5% CO2 and 94.9% N2) or continuation of normoxic exposure for 16 h before performing FACS analysis as described.

EndoPDI protein = experiment: Western blotting of EndoPDI protein after siRNA transfection; type: cell-based, human; conditions: HDMEC, 10 nM siRNA
Source text: Production of polyclonal antibodies to EndoPDI and Western blotting; The peptide of sequence ADGEDGQDPHSKC was synthesized by the Protein and Peptide Chemistry Department of Cancer Research UK, using standard techniques. This sequence corresponds to amino acids 52 to 63 of the human EndoPDI protein sequence with an additional cysteine residue added to the C-terminus to enable coupling to a carrier protein. The peptide was coupled to Imject® Maleimide Activated mcKLH (Pierce, Rockford, USA) following the manufacturer's instructions and diluted with Freunds adjuvant before injection into rabbits. A standard immunisation protocol was followed with 200 μg immunogen used for the first injection and 100 μg immunogen for subsequent boosts. The test bleeds were screened against pre-bleeds by ELISA to identify the presence of antibodies to EndoPDI in the rabbit serum.
as §1

[1] = system: human dermal microvascular endothelial cells (HDMEC); experiment: FACS analysis of apoptosis (Annexin V-FITC / propidium iodide) after siRNA transfection; type: cell-based; conditions: for cell population being apoptotic: 10 nM siRNA
Experimental: as §1
FACS Analysis: To distinguish apoptotic from necrotic cells, double staining for exposed phosphatidylserine and propidium iodide (PI) exclusion was performed as follows: Cells were harvested, washed twice with PBS and resuspended in binding buffer (10 mM HEPES/NaOH, pH 7.4, 140 mM NaCl, 2.5 mM CaC12). Five μl Annexin V-FITC antibody (Pharmingen, San Diego, USA) and 10 μl PI (50 μg/ml) were added to the cells. After incubation for 15 min in the dark at room temperature, the cells were analysed by a FACScan. Controls of unstained cells, cells stained with Annexin V-FITC only and cells stained with PI only were used to set up compensation and quadrants.

[2] = system: endothelin-1 secretion by HDMEC; experiment: Endothelin-1 secretion by HDMEC measured by ELISA after siRNA treatment; type: cell-based, human; conditions: under hypoxia
Experimental: as §1
Measurement of endothelin-1 secretion by ELISA: The secretion of endothelin-1 by endothelial cells was measured using a human endothelin-1 ELISA (R&D Systems, Abindgdon, UK) following manufacturer's instructions. Briefly, 50,000 cells were treated with RNAi oligos as before, the medium collected and diluted 1/25 for use in the ELISA.

[3] = system: adrenomedullin secretion by HDMEC; experiment: Adrenomedullin secretion by HDMEC measured by radioimmunoassay after siRNA treatment; type: cell-based, human; conditions: under hypoxia
Experimental: as §1
Measurement of adrenomedullin by Radioimmunoassay: The secretion of adrenomedullin by endothelial cells was measured using an adrenomedullin radioimmunoassay (Peninsula Laboratories Europe, Ltd, Merseyside, England) following manufacturer's instructions. Briefly, 50,000 cells were treated with RNAi oligos as before, the medium collected and used in the radioimmunoassay.

[4] = system: CD105 cell surface expression on HDMEC; experiment: CD105 cell surface expression on HDMEC by FACS after siRNA treatment; type: cell-based, human; conditions: under hypoxia
Experimental: as §1
The cell surface expression of CD105 was quantified by incubating 10^5 cells per tube with 50 μl (10 μl/ml in PBS) of monoclonal antibody to CD105 on ice for 1 h and washed twice with cold PBS. After incubation with FITC-labelled rabbit anti-mouse F(ab)2 (1/40 DAKO) for 30 min on ice, the cells were washed and resuspended in 0.3 ml of 2% buffered formalin and analyzed on a FACScan.

[5] = hypoxia 16 h (0.1% O2), listed as siRNA specific to EndoPDI
[6] = normoxia, listed as siRNA specific to EndoPDI

Row | Substance | EndoPDI mRNA expression (EndoPDI mRNA; [5]) | EndoPDI mRNA expression (EndoPDI mRNA; normoxia) | EndoPDI mRNA expression (EndoPDI mRNA; [6]) | EndoPDI protein expression (EndoPDI protein; [5]) | EndoPDI protein expression (EndoPDI protein; normoxia) | EndoPDI protein expression (EndoPDI protein; [6]) | necrotic cell population ([1]; HDMEC, hypoxia) | apoptotic population compared with controls ([1]; HDMEC, hypoxia (0.1% O2, 16 h)) | cell population being apoptotic ([1]; HDMEC, hypoxia (0.1% O2, 16 h)) | cell population being apoptotic ([1]; HDMEC, normoxia) | HDMEC survival ([1]; normoxia) | endothelin-1 secretion [2] | adrenomedullin secretion [3] | CD105 cell surface expression [4] | share of the cell population with marked reduction in CD105 expression ([4]; two peaks apparent) | apoptotic population compared with controls ([1]; HDMEC, normoxia)
1 | EndoPDI specific siRNA: EndoPDI specific siRNA oligo, 5′-GAAGCTGTGAAGTACCAGGTT-3′, synthesized with the Silencer siRNA Construction kit (listed as DNA, chemistry not given here) | loss of EndoPDI expression; also recorded: complete loss | completely blocked | complete loss | loss of EndoPDI expression; also recorded: complete loss | completely blocked | complete loss | significant increase | significant increase | 12% | 4.5% | no effect | even greater reduction | significantly reduced | marked reduction | 50% | 
2 | PDI specific siRNA: PDI specific siRNA oligo, 5′-GACCTCCCCTTCAAAGTTGTT-3′ (listed as DNA, chemistry not given here) [reference compound] |  |  |  |  |  |  |  | significant increase | 48% | 55% |  | significant decrease | little effect | little effect |  | significant increase
